Assay results reported in patent US6447749B1, “Perfluoro-alkyl containing dye molecules and galencial formulations” (Schering Aktiengesellschaft, priority 1999, dated 2002).

System: regional lymph nodes
Experiment: Interstitial near-infrared lymphography of guinea pigs
Assay type: in vivo
Details: guinea pig, formulation 5 mol % of dye 8/95 mol % Gd complex, interstitial/intracutaneous, 0.3 μmol/kg of 8
Description: The imaging properties of the formulations according to the invention were studied in vivo in guinea pigs. […] The fluorescence of the substances was stimulated by irradiation of the animals with near-infrared light of wavelength 740 nm, which was produced with an Nd:YAG laser. The fluorescence radiation was detected at a wavelength of >800 nm by an intensified CCD-camera, and the fluorescence images were stored digitally.
0.1 ml of a stock solution with 1 mmol/L of 8 was injected into a skin fold between the toes of the right rear extremity, and the final concentration was 0.3 μmol/kg of 8.

In the case of `CC1(C)C(=CC=CC=CC=CC2=[N+](CCCCS(=O)(=O)[O-])c3ccc(C(=O)N(CCOCCC(F)(F)C(F)(F)C(F)(F)C(F)(F)C(F)(F)C(F)(F)C(F)(F)C(F)(F)F)CC(O)CO)cc3C2(C)C)N(CCCCS(=O)(=O)[O-])c2ccccc21.[Na+]` (centres unmarked) [Dye 10, 5-{N-[2-(3,3,4,4,5,5,6,6,7,7,8,8,9,9,10,10,10-heptadecafluorodecyloxy)ethyl]-N-(2,3-dihydroxypropyl)aminocarbonyl}-2-{7-[1,3-dihydro-3,3-dimethyl-1-(4-sulfobutyl)-2H-indol-2-ylidene]-1,3,5-heptatrienyl}-3,3-dimethyl-1-(4-sulfobutyl)-3H-indolium, internal salt, sodium salt], the “fluorescence signal at the injection site” value (abdominal view, 120 minutes after administration) was “strong fluorescence signal” and the “fluorescence signal at the injection site” value (right lateral view, 117 minutes after administration) was “strong fluorescence signal”.
